# “And” between values parts separate entries of the source, which are not always exact repeats. Identical values can stand only once.
# Legend:
# [1] = target: T1, COX-2 (Homo sapiens, UniProt P35354); conditions: cited from earlier work
# T1 sequence (P35354 18-604): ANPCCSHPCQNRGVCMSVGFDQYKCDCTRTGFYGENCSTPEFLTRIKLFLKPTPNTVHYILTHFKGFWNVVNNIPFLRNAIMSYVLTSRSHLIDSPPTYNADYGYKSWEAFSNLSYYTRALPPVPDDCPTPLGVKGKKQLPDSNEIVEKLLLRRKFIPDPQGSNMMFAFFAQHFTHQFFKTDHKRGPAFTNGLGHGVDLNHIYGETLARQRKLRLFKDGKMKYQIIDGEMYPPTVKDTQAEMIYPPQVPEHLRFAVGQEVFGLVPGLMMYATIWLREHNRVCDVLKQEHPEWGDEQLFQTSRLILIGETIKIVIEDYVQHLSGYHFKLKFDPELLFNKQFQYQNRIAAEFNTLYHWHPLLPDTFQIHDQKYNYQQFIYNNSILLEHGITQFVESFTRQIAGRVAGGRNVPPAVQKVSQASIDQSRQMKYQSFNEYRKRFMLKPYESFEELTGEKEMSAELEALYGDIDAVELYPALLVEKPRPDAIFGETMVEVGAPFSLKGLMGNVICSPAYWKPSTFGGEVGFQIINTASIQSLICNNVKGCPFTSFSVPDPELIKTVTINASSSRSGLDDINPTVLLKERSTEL
# [2] = system: endometrial epithelial and stromal cells; conditions: previously reported; cited from earlier work
# [3] = target: T2, PGES (Homo sapiens, UniProt O14684); conditions: read-out: IC50 for inhibition of PGES activity; cited from earlier work
# T2 sequence (O14684 1-152): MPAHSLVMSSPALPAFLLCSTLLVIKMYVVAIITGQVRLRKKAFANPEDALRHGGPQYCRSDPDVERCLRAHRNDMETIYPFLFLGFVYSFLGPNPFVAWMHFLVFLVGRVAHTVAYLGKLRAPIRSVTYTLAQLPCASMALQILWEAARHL
# [4] = target: T3, IP receptor (Homo sapiens, UniProt P43119); test: Whole tissue cyclic AMP assay in endometrial biopsy tissue; type: cell-based; conditions: 100 nM iloprost, 10 min, n=4
# T3 construct: from tissue; host or cells: minced human endometrial biopsy tissue
# Method: Endometrial biopsies from across the menstrual cycle (n=8) were minced finely with scissors and divided into three portions. The tissue was incubated is overnight at 37° C. in a humidified 5% CO2 incubator in 2 ml RPMI (Sigma, UK) medium containing, 2 mmol” L-glutamine, 100 IU penicillin and 100 μg streptomycin and 3 μg/ml indomethacin (Sigma, Poole, UK). Following overnight incubation, the tissue was incubated in the same medium containing 1-methyl-3-isobutylxanthine (Sigma) at 37° C. for 30 min. It was then treated with control medium or 100 nM iloprost (a gift from Schering Health Care, Burgess Hill, UK) for 10 min. at 37° C. and lysed in 0.1M HCl and frozen until assayed. cAMP concentration was measured by ELISA (Biomol, Affiniti, Exeter, UK) according to the manufacturer's instructions and normalised to protein concentration determined by a modification of the method of Lowry (Bio-Rad, Hemel Hempstead, UK).
# [5] = target: T3, IP receptor; test: Cyclic AMP assay in Ishikawa cells; type: cell-based; conditions: 100 nM iloprost, 10 min, n=3, mean±SEM
# From the text: (§1) The Ishikawa endometrial epithelial cell line (Ishikawa cells) and endometrial stromal (ES) cells were propagated in DMEM F12 culture medium with glutamax (Invitrogen Ltd., Paisley, UK) supplemented with 10% foetal bovine serum (PAA Laboratories Ltd., Yeovil, UK). Endometrial stromal cells were a generous gift from Professor R W Kelly and they were derived from human endometrial biopsy tissue as described previously (Dunn et al (2002) J Clin Endocrinol Metab 87, 1898-1901). For cyclic AMP assay, cells were grown in 6 well plates to 70% confluence. They were starved overnight in serum free medium in the presence of indomethacin (3 μg/ml). Cells were then incubated in the same medium containing 1-methyl-3-isobutylxanthine at 37° C. for 30 minutes and treated with control medium or 100 nM iloprost for 10 minutes at 37° C. […] Data are presented as mean±SEM percentage increase in cAMP after treatment with iloprost, where the increase was calculated relative to the control samples. […] Proliferation was assessed using a colorimetric method, the CellTiter 96 Aqueous One Solution Cell Proliferation Assay (Promega, Southampton, UK) according to manufacturer's instructions. Twenty microlitres of the assay reagent (containing a tetrazolium compound, inner salt and an electron coupling reagent) were added to each well and samples were incubated at 37° C. for 2 hours and plates were read at 492 nm. […]
# [6] = target: T3, IP receptor; test: Cyclic AMP assay in endometrial stromal (ES) cells; type: cell-based; conditions: 100 nM iloprost, 10 min, n=3, mean±SEM
# From the text: as §1
# [7] = system: Ishikawa endometrial epithelial cell line; test: Proliferation assay (CellTiter 96) in Ishikawa cells; type: cell-based, human; conditions: 100 nM iloprost, 24 hours, n=5, mean±SEM
# From the text: as §1
# [8] = system: endometrial stromal (ES) cells; test: Proliferation assay (CellTiter 96) in ES cells; type: cell-based, human; conditions: 100 nM iloprost, 24 hours, n=6, mean±SEM
# From the text: as §1
# [9] = system: FP receptor; conditions: cited from earlier work
# [10] = system: TP; conditions: 10 μM; cited from earlier work
# [11] = system: DP; conditions: 10 μM; cited from earlier work
# [12] = target: EP2 (Homo sapiens, UniProt P43116); conditions: 10 μM; cited from earlier work
# [13] = system: EP4; conditions: 10 μM; cited from earlier work
# T3 sequence (P43119 whole entry): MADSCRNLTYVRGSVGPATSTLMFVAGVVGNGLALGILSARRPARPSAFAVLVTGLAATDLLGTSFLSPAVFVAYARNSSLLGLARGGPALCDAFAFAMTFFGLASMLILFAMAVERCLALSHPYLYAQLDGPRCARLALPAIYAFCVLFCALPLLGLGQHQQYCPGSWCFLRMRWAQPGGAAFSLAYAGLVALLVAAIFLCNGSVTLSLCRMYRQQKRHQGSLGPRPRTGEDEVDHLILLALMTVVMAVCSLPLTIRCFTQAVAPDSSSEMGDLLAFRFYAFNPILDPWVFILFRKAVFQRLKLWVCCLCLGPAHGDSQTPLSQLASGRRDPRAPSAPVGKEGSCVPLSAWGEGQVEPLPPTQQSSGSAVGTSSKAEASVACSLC
# Chain of EP2 (P43116 whole entry): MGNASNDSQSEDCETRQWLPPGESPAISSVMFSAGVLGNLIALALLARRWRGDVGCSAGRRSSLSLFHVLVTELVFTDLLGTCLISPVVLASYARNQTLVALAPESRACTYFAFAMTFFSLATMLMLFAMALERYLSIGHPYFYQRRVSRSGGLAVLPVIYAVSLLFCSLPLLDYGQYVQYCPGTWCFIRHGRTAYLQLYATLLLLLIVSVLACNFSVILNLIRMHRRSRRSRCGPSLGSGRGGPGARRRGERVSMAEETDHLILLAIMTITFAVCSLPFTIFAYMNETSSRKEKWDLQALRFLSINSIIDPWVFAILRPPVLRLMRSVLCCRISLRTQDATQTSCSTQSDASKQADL
structure (smiles),measurement,setting,value
"CS(=O)(=O)Nc1ccc([N+](=O)[O-])cc1Oc1ccccc1 [Nimesulide, N-(4-nitro-2-phenoxyphenyl) methanesulfonamide]",specificity for COX-2 inhibition over COX-1 inhibition,[1],100 fold
CS(=O)(=O)Nc1cc2c(cc1Sc1ccc(F)cc1F)C(=O)CC2 [L 475 L337],specificity for COX-2 inhibition over COX-1 inhibition,[1],500 fold
CCCCC[C@H](O)/C=C/[C@H]1[C@H](O)CC(=O)[C@@H]1C/C=C\CCCC(=O)O [PGE2],increase in proliferation,[2],25%
CCCCC/C=C\C\C=C/C=C/C=C/[C@@H](SC[C@H](NC(=O)CC[C@H](N)C(=O)O)C(=O)NCC(=O)O)[C@@H](O)CCCC(=O)O [leukotriene C4],IC50,[3],5 µM
CSc1ccc(/C=C2/C(C)=C(CC(=O)O)c3cc(F)ccc32)cc1 [sulindac sulphide],IC50,[3],80 µM
CC#CCC(C)[C@H](O)/C=C/[C@@H]1[C@H]2C/C(=C/CCCC(=O)O)C[C@H]2C[C@H]1O (stereo partly shown) [iloprost],fold increase in cAMP generation,[4]; samples from proliferative phase of the menstrual cycle,4.83±0.74 fold
same,fold increase in cAMP generation,[4]; samples from secretory phase of the menstrual cycle,2.07±0.38 fold and 2.07±0.39 fold
same,"cAMP generation, of control values",[5],166%±27.6%
same,"cAMP generation, of control values",[6],"37,936%±18,464%"
same,"proliferation, of control values",[7],109.4%±2.4%
same,"proliferation, of control values",[8],112%±3.8%
CCCCNC(=O)NS(=O)(=O)c1ccc(C)cc1 [tolbutamide],FP receptor antagonist potency,[9],very weak antagonists
"O=C(O)CCC/C=C\C[C@@H]1[C@@H](/C=C/[C@H](O)C2Cc3ccccc3C2)[C@@H](F)C[C@@H]1O [AL-8810, (5Z, 13E)-(9S, 11S,15R)-9,15-dihydroxy-11-fluoro-15-(2-indanyl)-16, 17, 18, 19, 20-pentanor-5,13-prostadienoic acid]",inhibition of functional responses of TP receptor,[10],not to significantly inhibit
same,inhibition of functional responses of DP receptor,[11],not to significantly inhibit
same,inhibition of functional responses of EP2 receptor,[12],not to significantly inhibit
same,inhibition of functional responses of EP4 receptor,[13],not to significantly inhibit
same,FP receptor antagonist potency,[9],micromolar potency
Cc1ccc(S(=O)(=O)NC(=O)NN2CCCCCC2)cc1 [tolazamide],FP receptor antagonist potency,[9],very weak antagonists
CCCCC[C@H](O)/C=C/[C@@H]1[C@@H](C/C=C\CCCC(=O)O)[C@@H](O)C[C@H]1O [PGF2α],increase in proliferation,[2],31%
